Assay results reported in US3958000A, “Fungicidal 2-arylthio-, 2-alkylthio- and 2-haloalkylthio-1,2,4-oxadiazolidine-3,5-diones” (Chevron Research Company, priority 1975, dated 1976).

Key:
Assay type in all cases: cell-based
[1] = test system: Botrytis cinerea; assay: Fungal spore control (spore slide-germination) against Botrytis cinerea; conditions: Conc. 10 ppm, overnight in moist chamber, read-out: % Control (percent inhibition of germination of fungus spores)
[2] = test system: Alternaria solani; assay: Fungal spore control (spore slide-germination) against Alternaria solani; conditions: Conc. 4 ppm, overnight in moist chamber, read-out: % Control (percent inhibition of germination of fungus spores)
[3] = test system: Monolinia fructicola; assay: Fungal spore control (spore slide-germination) against Monolinia fructicola; conditions: Conc. 10 ppm, overnight in moist chamber, read-out: % Control (percent inhibition of germination of fungus spores)

SMILES | inhibition at 10 ppm [1] | inhibition at 4 ppm [2] | inhibition at 10 ppm [3]
CC(C)n1c(=O)on(SC(Cl)(Cl)Cl)c1=O [Compound 3] | 100% | 99% | 100%
O=c1on(SC(Cl)(Cl)Cl)c(=O)n1C1CCCCC1 [Compound 1, 2-trichloromethylthio-4-cyclohexyl-1,2,4-oxadiazolidine-3,5-dione] | 100% | 78% | 100%
